From patent publication US12053473B2, “Benzylamino substituted quinazolines and derivatives as SOS1 inhibitors” (priority 2016, dated 2024)

molecular target: SOS1 and KRAS G12D (protein-protein interaction) (Homo sapiens, UniProt Q07889); experiment: KRAS::SOS1 AlphaScreen binding assay; conditions: not given
Experimental: KRAS::SOS1 AlphaScreen Binding Assay
Low IC50 values are indicative of high potency of the SOS1 inhibitor compound in this assay setting:
10 nM (final assay concentration) KRAS G12D, 10 μM (final assay concentration) GDP and 5 nM (final assay concentration) GST-SOS1 are mixed in assay buffer prior to use and kept at room temperature.
AlphaLSA Glutathione Acceptor Beads and AlphaScreen Streptavidin Donor Beads are mixed in assay buffer at a concentration of 10 μg/mL (final assay concentration) each prior to use and kept at room temperature.
Compounds are diluted to a final start concentration of 100 μM and are tested in duplicate. […] For compound a start concentration of 100 μM, 150 nL of compound solution is transferred per well in 11 concentrations in duplicate with serial 1:5 dilutions.
The assay is run using a fully automated robotic system in a darkened room below 100 Lux. 10 μL of KRAS::SOS1 GDP mix is added into columns 1-24 to the 150 nL of compound solution (final dilution in the assay 1:100, final DMSO concentration 1%).
After a 30 minute incubation time 5 μL of bead mix is added into columns 1-23. Plates are kept at room temperature in a darkened incubator. After a further 60 minute incubation, the signal is measured using a PerkinElmer Envision HTS Multilabel Reader using the AlphaScreen specifications from PerkinElmer. Each plate contains the following controls: • diluted DMSO+KRAS::SOS1 GDP mix+bead mix • diluted DMSO+KRAS::SOS1 GDP mix Result Calculation:
IC50 values are calculated and analyzed using a 4 parametric logistic model.

Compound | IC50 [nM]
COc1cc2nc(C)nc(N[C@H](C)c3cccc(C(F)(F)F)c3)c2cc1[C@]1(O)CC[C@@H](O)CC1 [I-57] | 10
COCCN1CCN(C(=O)[C@H]2CC[C@@H](c3cc4c(N[C@H](C)c5cc(N)cc(C(F)(F)F)c5F)nc(C)nc4cc3OC)CC2)CC1 [I-247] | 18

same assay, conditions: assay buffer with 100 μM EDTA (values marked with an asterisk); read-out: IC50 (SOS1)

Compound | IC50 [nM]
Cc1cccc([C@@H](C)Nc2nc(C)nc3ccc(C4CCNCC4)cc23)c1 [I-183] | 38
Cc1cccc([C@@H](C)Nc2nc(C)nc3ccc([C@H]4CC[C@H](O)CC4)cc23)c1 [I-64] | 34

same assay, conditions: assay buffer without EDTA (values not marked with an asterisk); read-out: IC50 (SOS1)

Compound | IC50 [nM]
COc1cc2nc(C)nc(N[C@H](C)c3cccc(C(F)(F)F)c3)c2cc1-c1ccc(C(=O)N(C)C)cn1 [I-191] | 35
CC(=O)N1CCC(O)(c2ccc3nc(C)nc(N[C@H](C)c4cccc(C)c4)c3c2)CC1 [I-52] | 14
CC(=O)N1CCC(O)(c2cc(C)c3nc(C)nc(N[C@H](C)c4cccc(C(F)(F)F)c4)c3c2)CC1 [I-43] | 8
CC(=O)N1CCC2(CC1)CC(O)(c1ccc3nc(C)nc(N[C@H](C)c4cccc(C(F)(F)F)c4)c3c1)C2 [I-51] | 23
Cc1cccc([C@@H](C)Nc2nc(C)nc3cc(C)c(C4CCN(CC(=O)O)CC4)cc23)c1 [I-291] | 10
COc1cc2nc(C)nc(N[C@H](C)c3cccc(C(F)(F)CO)c3)c2cc1C1CCN(C(C)=O)CC1 [I-166] | 2
CC(=O)N1CC[C@H](Oc2cc3c(N[C@H](C)c4cc(N)cc(C(F)(F)F)c4)nc(C)nc3cc2F)C1 [I-8] | 6
Cc1cccc([C@@H](C)Nc2nc(C)nc3cc(C)c(C4CCNCC4)cc23)c1 [I-176] | 46
COc1c(C2(O)CCN(C(C)=O)CC2)cc2c(N[C@H](C)c3cccc(C(F)(F)F)c3F)nc(C)nc2c1C [I-20] | 7
CC(=O)O[C@H]1CC[C@](O)(c2ccc3nc(C)nc(N[C@H](C)c4cccc(C(F)(F)F)c4)c3c2)CC1 [I-67] | 26
Cc1cccc([C@@H](C)Nc2nc(C)nc3cc(C)c(C4CCN(C(C)C)CC4)cc23)c1 [I-288] | 22
Cc1nc(N[C@H](C)c2cccc(C(F)(F)F)c2)c2cc(C3(O)CCN(C(=O)N(C)C)CC3)ccc2n1 [I-50] | 23
Cc1nc(N[C@H](C)c2cc(N)cc(C(F)(F)F)c2)c2cc(O[C@H]3CCN(C(=O)C4CC4)C3)c(C)cc2n1 [I-54] | 4
COc1cc2nc(C)nc(N[C@H](C)c3cccc(C(F)(F)F)c3)c2cc1O[C@H]1CCN(C(C)=O)C1 [I-5] | 13
COCC(=O)N1CCC(O)(c2cc3c(N[C@H](C)c4cccc(C(F)(F)F)c4)nc(C)nc3cc2OC)CC1 [I-47] | 5
COc1cc2nc(C)nc(N[C@H](C)c3cccc(C)c3)c2cc1O[C@H]1CCN(C(C)=O)C1 [I-4] | 30

same assay, conditions: read-out: IC50 (SOS1)

Compound | IC50 [nM]
COCCN(C)C(=O)[C@H]1CC[C@@H](c2cc3c(N[C@H](C)c4cc(N)cc(C(F)(F)F)c4)nc(C)nc3cc2OC)CC1 [I-358] | 49
COCC(=O)N1CCC(c2cc3c(N[C@H](C)c4cc(N)cc(C(F)(F)F)c4)nc(C)nc3cc2C)CC1 [I-315] | 3
Cc1cccc([C@@H](C)Nc2nc(C)nc3cc(C)c(-c4ccc(C(=O)N5CCOCC5)cc4)cc23)c1 [I-83] | 44
Cc1cccc([C@@H](C)Nc2nc(C)nc3ccc([C@H]4CC[C@H](C(=O)N5CC(C#N)C5)CC4)cc23)c1 [I-265] | 36
CONC(=O)CC(C)c1cc2c(N[C@H](C)c3cccc(C(F)(F)F)c3)nc(C)nc2cc1OC (stereo partly shown) [I-382] | 16
COc1cc2nc(C)nc(N[C@H](C)c3cc(N)cc(C(F)(F)F)c3F)c2cc1[C@H]1CC[C@@H](C(=O)N(C)C)CC1 [I-245] | 35
Cc1nc(N[C@H](C)c2cc(N)cc(C(F)(F)F)c2)c2cc([C@H]3CC[C@H](C(=O)N(C)C)CC3)cc(C)c2n1 [I-363] | 4
Cc1nc(N[C@H](C)c2cc(N)cc(C(F)(F)F)c2)c2cc(C3CCS(=O)(=O)CC3)c(F)cc2n1 [I-320] | 4
COCC(=O)N1CCC(c2cc3c(N[C@H](C)c4cccc(C)c4)nc(C)nc3cc2C)CC1 [I-272] | 34
CCn1cc(-c2cc3c(N[C@H](C)c4cc(N)cc(C(F)(F)F)c4)nc(C)nc3cc2C)ccc1=O [I-347] | 6
Cc1nc(N[C@H](C)c2cc(N)cc(C(F)(F)F)c2)c2cc(-c3ccn(C)c(=O)c3)c(C)cc2n1 [I-348] | 7
COc1cc2nc(C)nc(N[C@H](C)c3cc(N)cc(C(F)(F)F)c3F)c2cc1C1CCS(=O)(=O)CC1 [I-311] | 6
Cc1nc(N[C@H](C)c2cc(N)cc(C(F)(F)F)c2)c2cc([C@H]3CC[C@H](C(=O)N(C)C)CC3)ccc2n1 [I-298] | 3
Cc1nc(N[C@H](C)c2cc(N)cc(C(F)(F)F)c2)c2cc(C3CCS(=O)(=O)CC3)ccc2n1 [I-322] | 3
Cc1nc(N[C@H](C)c2cc(N)cc(C(F)(F)F)c2)c2cc([C@H]3CC[C@@H](C(=O)N(C)C)CC3)ccc2n1 [I-299] | 10
CONC(=O)CC(C)c1ccc2nc(C)nc(N[C@H](C)c3cccc(C(F)(F)F)c3)c2c1 (stereo partly shown) [I-376] | 34
Cc1nc(N[C@H](C)c2cc(N)cc(C(F)(F)F)c2)c2cc([C@H]3CC[C@@H](C(=O)N4CCOCC4)CC3)ccc2n1 [I-235] | 8

Compound | IC50 [nM]
COCCN(C)C(=O)[C@H]1CC[C@H](c2ccc3nc(C)nc(N[C@H](C)c4cc(N)cc(C(F)(F)F)c4)c3c2)CC1 [I-236] | 2
Cc1cccc([C@@H](C)Nc2nc(C)nc3ccc([C@H]4CC[C@H](C(=O)N5CCC(O)C5)CC4)cc23)c1 (stereo partly shown) [I-266] | 25
COc1cc2nc(C)nc(N[C@H](C)c3cc(N)cc(C(F)(F)F)c3)c2cc1[C@H]1CC[C@@H](C(=O)N2CCOCC2)CC1 [I-360] | 25
CC(=O)N1CCC(c2cc(C)c3nc(C)nc(N[C@H](C)c4cccc(C)c4)c3c2)CC1 [I-269] | 24
COCC(=O)N1CCC(c2cc(C)c3nc(C)nc(N[C@H](C)c4cccc(C)c4)c3c2)CC1 [I-270] | 21
COc1cc2nc(C)nc(N[C@H](C)c3cccc(C(F)(F)F)c3)c2cc1-c1ccc(C(=O)N2CCOCC2)cc1 [I-215] | 37
Cc1nc(N[C@H](C)c2cc(N)cc(C(F)(F)F)c2)c2cc(C3CCS(=O)(=O)CC3)cc(C)c2n1 [I-316] | 6
Cc1nc(N[C@H](C)c2cc(N)cc(C(F)(F)F)c2C)c2cc(C3CCS(=O)(=O)CC3)ccc2n1 [I-317] | 4
COc1cc2nc(C)nc(N[C@H](C)c3cc(N)cc(C(F)(F)F)c3C)c2cc1[C@H]1CC[C@H](C(=O)N(C)C)CC1 [I-248] | 2
CC(=O)N1CC=C(c2ccc3nc(C)nc(N[C@H](C)c4cccc(C(F)(F)F)c4)c3c2)CC1 [I-221] | 11
Cc1nc(N[C@H](C)c2cc(N)cc(C(F)(F)F)c2)c2cc([C@H]3CC[C@H](C(=O)N(C)CC(C)(C)O)CC3)ccc2n1 [I-258] | 3
Cc1nc(N[C@H](C)c2cc(N)cc(C(F)(F)F)c2)c2cc(-c3ccc(=O)[nH]c3)ccc2n1 [I-102] | 9
Cc1nc(N[C@H](C)c2cc(N)cc(C(F)(F)F)c2F)c2cc(C3CCS(=O)(=O)CC3)ccc2n1 [I-310] | 7
COc1cc2nc(C)nc(N[C@H](C)c3cccc(C(F)(F)F)c3)c2cc1-c1ccc(C(=O)N(C)C)c(C)c1 [I-216] | 48
COc1cc2nc(C)nc(N[C@H](C)c3cc(N)cc(C(F)(F)F)c3)c2cc1[C@H]1CC[C@H](C(=O)N2CCN(C)CC2)CC1 [I-353] | 2
CCN(C)C(=O)[C@H]1CC[C@H](c2ccc3nc(C)nc(N[C@H](C)c4cc(N)cc(C(F)(F)F)c4)c3c2)CC1 [I-238] | 3
CCN(C)C(=O)[C@H]1CC[C@@H](c2ccc3nc(C)nc(N[C@H](C)c4cc(N)cc(C(F)(F)F)c4)c3c2)CC1 [I-239] | 15

same assay, conditions: read-out: IC50 (SOS1); assay buffer without EDTA (values not marked with an asterisk)

Compound | IC50 [nM]
Cc1nc(N[C@H](C)c2cccc(C(F)(F)F)c2C)c2cc(C3(O)CCC(O)CC3)ccc2n1 (stereo partly shown) [I-63] | 9

same assay, conditions: values marked with * in the table; read-out: IC50 (SOS1)

Compound | IC50 [nM]
CNC(=O)Cn1cc(-c2ccc3nc(C)nc(N[C@H](C)c4cccc(C(F)(F)F)c4)c3c2)ccc1=O [I-344] | 37
Cc1nc(N[C@H](C)c2cccc(C(F)(F)F)c2)c2cc(-c3ccc(=O)n(CC(=O)O)c3)ccc2n1 [I-341] | 35
Cc1cccc([C@@H](C)Nc2nc(C)nc3ccc(-c4ccc(=O)n(CC(=O)N(C)C)c4)cc23)c1 [I-336] | 26
Cc1nc(N[C@H](C)c2cccc(C(F)(F)F)c2)c2cc(-c3ccc(=O)[nH]c3)ccc2n1 [I-100] | 48
Cc1cccc([C@@H](C)Nc2nc(C)nc3ccc(-c4ccn(CC(=O)O)c(=O)c4)cc23)c1 [I-342] | 48
Cc1nc(N[C@H](C)c2cc(N)cc(C(F)(F)F)c2)c2cc(-c3ccc(=O)n(C)c3)ccc2n1 [I-104] | 6
Cc1cccc([C@@H](C)Nc2nc(C)nc3cc(C)c(-c4ccc(=O)n(C)c4)cc23)c1 [I-105] | 36
Cc1cccc([C@@H](C)Nc2nc(C)nc3ccc(-c4ccc(=O)n(C)c4)cc23)c1 [I-103] | 46
Cc1nc(N[C@H](C)c2cccc(C(F)(F)F)c2)c2cc(-c3ccc(=O)n(CC(N)=O)c3)ccc2n1 [I-343] | 40
